Laboratory results: patent publication US5608084A, “Lactones with antioxidising and hypolipidaemic activity useful in the therapy of the atherosclerosis” (priority 1994, dated 1997)

Tested on: LDL
Experiment: Antioxidant activity: latency period of copper-induced LDL oxidation (TBARS method)
Format: biochemical, human
Details: for Latency period: LDL oxidized with 5 μM cupric sulfate at 37° C.; for concentration giving a comparable prolongation of the latency period, relative to probucol (times lower): compared with probucol; for antioxidant activity compared with probucol: latency period
Excerpt: The determination of the melting point has been carried out by means of a capillary melting point apparatus Electrothermal, without any correction. The I.R. spectrum has been obtained by means of a Perkin-Elmer rood. 963/G spectrophotometer generally, when not otherwise specified, preparing the specimen in potassium bromide and recording the spectrum between […]. The ^1 H-NMR spectrum has been recorded at room temperature with a 200 MHz Varian Gemini spectrometer, in the solvents cited, by using tetramethylsilane as internal standard; the resonances of the signals have been expressed in p.p.m.. The ^13 C-NMR spectrum has been carried out at 50.3 MHz with a Varian Gemini 200 spectrometer by using tetramethylsilane as internal standard and as solvents those described in the experimental section. The mass spectrum has been recorded by using a VG 7070E mass spectrometer, at a 70 eV ionization voltage and with a 6 Kvolt acceleration voltage. The chromatographies on silica gel have been carried out by using 60 F254 silica gel ([…]--Merck) with the eluents cited in the examples, according to the method described by Clark Still W. et al. in J. Org. Chem., 43, 2923, (1978). The pharmacological activity of the lactones of formula I object of the present invention has been determined by means of a series of in vitro tests considered predictive of the antioxidant and hypolipidaemic properties. The antioxidant activity has been evaluated through the capability of some lactones of formula I to prevent and/or delay the oxidative modification of the lipoproteins (LDL), caused by a chemical method by incubating native LDL with cupric ions, according to the method described by Steinbrecher U. P. in J. Biol. Chem., 262, 3603-3608, (1987). The evaluation of the oxidation degree of the LDL through the monitoring of the concentration of aldehydes derived from the degradation of the lipidic peroxides and the observation of the modifications of the B-100 apolipoprotein represent the used experimental approach. The antioxidant activity of the lactones has been expressed in terms of duration of the latency period that represents a parameter of the resistance to the oxidation of the LDL. The LDL have been isolated from the human plasma obtained from blood collected, in the presence of EDTA, from healty volunteers fasting from 8 hours according to the method described by Havel H. in J. Clin. Invest., 34, 1345-1353, (1955). The solution, dialyzed in Visking-Serva dialysis tubes at 4° C. for 72 hours in phosphate buffer (PBS) added with EDTA (0.24 mM), has been filtered through a membrane with 0.45μ porosity (Millex HV Filters) and the proteic concentration has been determined according to the method described by Lowry O. et al. in J. Biol. Chem., 193, 265-275, (1951). The solution has been diluted with PBS-EDTA at a concentration of 500 μg protein/ml and the obtained LDL have been incubated at 42° C. for 45 minutes in presence of the lactones solubilized in ethanol (1.7 μl/ml LDL). At the end of the incubation the solutions have been placed on ice for 45 minutes and dialyzed at 4° C. for 36 hours in PBS. The oxidation of the LDL has been carried out with 5 μM cupric sulfate at 37° C. and stopped at the experimental times by cooling at 4° C. and adding 0.24 mM of EDTA. The solutions of LDL have been kept at 4° C. and sheltered from light during the experimental procedure. The oxidation degree of the LDL has been checked by spectrophotometric determination (λ=535 nm--Perkin Elmer spectrophotometer mod. Lambda 1) of the content of the aldehydes of degradation reactive to the thiobarbituric acid using as standard malondialdehyde (MDA), according to the TBARS method, described in Methods in Enzymology, vol. 52, (1978).
FIGS. 1A-1C show the results of spectrophotometric readings expressed as ng of MDA/mg LDL protein. […]

Row | Structure (SMILES) | Latency period (10 μM) [min] | Latency period (1 μM) [min] | Latency period (5 μM) [min] | concentration giving a comparable prolongation of the latency period, relative to probucol (times lower) [times] | antioxidant activity compared with probucol
1 | CC(C)(Sc1cc(C(C)(C)C)c(O)c(C(C)(C)C)c1)Sc1cc(C(C)(C)C)c(O)c(C(C)(C)C)c1 [Probucol, reference compound] | 82 |  |  |  | 
2 | Cc1c(C)c2c(c(C)c1O)CCC(C)OC(=O)C(C)(C)CCCO2 (centres unmarked) [Example 3, 6,6,9,13,15,16-Hexamethyl-14-hydroxy-2,8-dioxabicyclo[10.4.0]hexadec-12,14,16-trien-7-one] | > 180 | 73 | 120 | 10 | far higher than that of probucol
3 | CCC1CCc2c(C)c(O)c(C)c(C)c2OCCCC(C)(C)C(=O)O1 (centres unmarked) [Example 6, 9-Ethyl-14-hydroxy-6,6,13,15,16-pentamethyl-2,8-dioxabicyclo[10.4.0]hexadec-12,14,16-trien-7-one] | > 180 | 95 | > 180 | 10 | far higher than that of probucol
